Patent US7858585B2, “Hydrogels and uses thereof” (University of Delaware, priority 2005, dated 2010)

Experiments:
[1] = Oscillatory rheology of 0.5 wt % MAX1 and HPL8 hydrogels in DMEM, pH 7.4, 37° C.; assay type: physicochemical
Experimental: (§1) To a vial containing 1 mg of peptide, 100 μL of 25 mM HEPES, pH 7.4 was added resulting in a soluble 1 wt % peptide solution. To this solution, an equal volume of DMEM supplemented with 25 mM HEPES, pH 7.4 was added to initiate self-assembly, resulting in a 0.5 wt % hydrogel. All hydrogels were prepared by this method unless otherwise stated.
Oscillatory rheology experiments were performed on a TA Instruments rheometer (AR 2000) with a 25 mm diameter stainless steel parallel plate geometry with a gap height of 0.5 mm. All measurements were acquired at 37° C. For dynamic time sweeps (DTS) the hydrogels were prepared as stated above and quickly transferred to the rheometer where the storage modulus (G′) was monitored as a function of time, frequency=6 rad. sec-1 and strain=0.2%. For the shear thinning experiments, a DTS was preformed for 10 min at which time 1000% stain was applied for 30 seconds to shear thin the material. After which time, the strain was decreased to 0.2% and G′ monitored as a function of time. Dynamic frequency, dynamic strain and dynamic time sweep measurements measuring both G′ and the loss modulus (G″) are provided in FIG. 36.

C3H10t1/2 cells = experiment: Live/Dead assay of encapsulated cells after shear thin delivery; assay type: cell-based; conditions: 0.5 wt % hydrogel, three hours after delivery
Experimental: Lastly, the effect of shear thin delivery on cell viability was assessed by performing a Live-Dead assay on cells that had been encapsulated into a 0.5 wt % HPL8 hydrogel and subsequently shear thin delivered to a LSCM well FIG. 33c. In this micrograph, cells contained within the interior of the gel are visualized by viewing from the top of the gel (along the z-axis, depth of field is 90 μm.). Three hours after the gel/cell construct had been shear-thin delivered, calcien AM and ethidium homodimer were added to the top of the gel, which freely diffuse through the gel network, staining live cells green and dead cells red, respectively. […] In fact, the limited degree of cell death observed in FIG. 33c is nearly identical to that of the control experiment where cells were encapsulated in HPL8 hydrogel but not shear thin delivered (FIG. 35).
C3H10t1/2 cell growth conditions are 90% DMEM supplemented with 25 mM HEPES, 10% FBS, 5 mM L-glutamine, and 50 μg/mL Gentamicin at 37° C., 5% CO2. For confocal micrographs of hydrogels impregnated with pre-labeled cells, a suspension of 1.5 e6 cells/mL were incubated in a solution of 5 μM cell tracker green in DMEM for 45 min. […] Viability of encapsulated cells in 0.5 wt % hydrogels (before and after shear thinning) was assessed via a Live/Dead assay at 3 hr after encapsulation. […]

[2] = CD kinetics of β-sheet formation ([θ]216) after addition of DMEM; assay type: physicochemical; conditions: 0.5 wt %, pH 7.4, 37° C.
Experimental: as §1
CD kinetic spectra were collected on a Jasco J-810 spectropolarimeter employing 0.1 mm quartz water-jacketed cell. Peptide samples were prepared as stated above, transferred to the cell at 37° C. The ellipiticity in millidegrees were monitored at 216 nm as a function of time. Following the kinetic measurement, a wavelength scan was recorded at 37° C. using a 2 nm step size. The concentrations of MAX1 and HPL8 stock solutions were determined by absorbance (λ220=15750 cm-1.M-1) after dilution with water. Mean residue ellipticity [θ]=(θobs/10.1.c)/r, where θobs is the measured ellipticity in millidegrees, l is the length of the cell (cm), c is the concentration (M) and r is the number of residues.

[3] = test system: C3H10t1/2 mesenchymal stem cells; experiment: Encapsulation of mesenchymal stem cells in hydrogel, LSCM imaging of cell distribution; assay type: cell-based
Source text: For example, FIG. 29 contains a Laser Scanning Confocal Microscopy (LSCM) cross-sectional view of C3H10t1/2 cells encapsulated within a 0.5 wt % MAX1 hydrogel. In this micrograph, cells contained within the interior of the gel are visualized from the side of the gel (along the y-axis, depth of field is 920 μm); the top and bottom of the image is the top and bottom of the gel, respectively. Cells are encapsulated by first dissolving 1.0 wt % MAX1 in buffer at pH 7.4. To this solution, an equal volume (50 μL) of DMEM cell culture medium containing 250,000 cells is added. The salt within the DMEM electrostatically screens the lysine side chain charges resulting in peptide folding and consequent self-assembly. This simple one-to-one addition of solutions affords gels impregnated with cells. However, it is clear in FIG. 29 that the hydrogelation kinetics of MAX1 are not fast enough to entrap the cells homogeneously since a majority of the cells sediment to the bottom of the gel sample well.
C3H10t1/2 cell growth conditions are 90% DMEM supplemented with 25 mM HEPES, 10% FBS, 5 mM L-glutamine, and 50 μg/mL Gentamicin at 37° C., 5% CO2. […] Viability of encapsulated cells in 0.5 wt % hydrogels (before and after shear thinning) was assessed via a Live/Dead assay at 3 hr after encapsulation. […]

With VKVKVKVKV^DPPTKVEVKVKV-NH2 [HPL8] the “G′ within the first 40 seconds” value ([1]; pH 7.4, 37° C.) was > 100 Pa, the “G′ at five minutes” value ([1]; phase I initial gelation) was 450 Pa and the “G′ within a minute” value ([1]; phase I initial gelation) was > 100 Pa. For the same substance, the “cell viability after shear thin delivery” value (C3H10t1/2 cells) was “majority of the cells remain viable”, the “time to completely fold and self-assemble affording gel” value [2] was “under a minute” and the “distribution of cells encapsulated in gel” value ([3]; 0.5 wt % gel, 250K cells in DMEM, pH 7.4, 37° C.) was “homogeneous distribution of cells”. The “distribution of cells after shear thinning via syringe” value ([3]; 0.5 wt % gel/cell construct formed in a syringe) was “still retain the homogeneous cell distribution”.
